The IC50 is the concentration that inhibits the measured activity by half. A higher IC50 goes with weaker potency. For orientation: inhibition means the drop in the measured response relative to a control, in per cent.

Results on three molecules are retold here after ChEMBL document CHEMBL4828709, “Discovery of 2,4-pyrimidinediamine derivatives as potent dual inhibitors of ALK and HDAC” (Eur J Med Chem, 2021).

Assay [1] relates to SH-SY5Y. Description: Induction of apoptosis in human SH-SY5Y cells assessed as viable cells at 1 uM measured after 24 hrs by Annexin V-FITC/PI staining based flowcytometry (reference value: 77.05%). The following applies: read-out: Activity. The format is functional.
Assay [2] relates to SH-SY5Y. Description: Induction of apoptosis in human SH-SY5Y cells assessed as necrotic cells at 1 uM measured after 24 hrs by Annexin V-FITC/PI staining based flowcytometry (reference value: 7.81%). The class given is functional.
In assay [3] the test system is SH-SY5Y. Description: cells. The following applies: Homo sapiens, 72 h. The class given is functional, cell-based.
Description: Antiproliferative activity against human SH-SY5Y cells harboring ALK F1174L mutant assessed as inhibition of cell proliferation measured after 72 hrs by CCK8 assay
Assay [4] concerns MDA-MB-231. Description: cells. The format is functional, cell-based. As to conditions: Homo sapiens, MDA-MB-231, 72 h.
Description: Antiproliferative activity against human MDA-MB-231 cells assessed as inhibition of cell proliferation measured after 72 hrs by CCK8 assay
In assay [5] the test system is SH-SY5Y. Description: Induction of apoptosis in human SH-SY5Y cells assessed as early apoptotic cells at 1 uM measured after 24 hrs by Annexin V-FITC/PI staining based flowcytometry (reference value: 0.82%). The class given is functional.
The test system of assay [6] is NCI-H2228. The assay is described as follows: cells. The format is functional, cell-based. The following applies: Homo sapiens, NCI-H2228, 72 h.
The subject of assay [7] is SH-SY5Y. Description: Induction of apoptosis in human SH-SY5Y cells assessed as late apoptotic cells at 1 uM measured after 24 hrs by Annexin V-FITC/PI staining based flowcytometry (reference value: 14.32%). The format is functional.
For assay [8], the system named is MDA-MB-231. The assay is described as follows: Induction of apoptosis in human MDA-MB-231 cells assessed as early apoptotic cells at 1 uM measured after 24 hrs by Annexin V-FITC/PI staining based flowcytometry ( Rvb = […]%). The format is functional.
A short description of assay [9]: cells. The class given is functional, cell-based. As to conditions: Homo sapiens, SKNBE2, 72 h.
Description: Antiproliferative activity against human SKNBE2 cells harboring wild type ALK assessed as inhibition of cell proliferation measured after 72 hrs by CCK8 assay
Assay [10] has as its system HepG2. The assay is described as follows: cells. The format is functional, cell-based. The following applies: Homo sapiens, HepG2, 72 h.
Description: Antiproliferative activity against human HepG2 cells assessed as inhibition of cell proliferation measured after 72 hrs by CCK8 assay
For assay [11], the system named is MDA-MB-231. Description: Induction of apoptosis in human MDA-MB-231 cells assessed as necrotic cells at 1 uM measured after 24 hrs by Annexin V-FITC/PI staining based flowcytometry (reference value: 0.94%). The class given is functional.
The test system of assay [12] is MDA-MB-231. Description: Induction of apoptosis in human MDA-MB-231 cells assessed as late apoptotic cells at 1 uM measured after 24 hrs by Annexin V-FITC/PI staining based flowcytometry ( Rvb = 5.28%). The class given is functional.
Assay [13] deals with MDA-MB-231. The assay is described as follows: Induction of apoptosis in human MDA-MB-231 cells assessed as viable cells at 1 uM measured after 24 hrs by Annexin V-FITC/PI staining based flowcytometry (reference value: 93.14%). The class given is functional. The following applies: read-out: Activity.
In assay [14] the test system is SH-SY5Y. Description: Potency index, ratio of crizotinib IC50 to test compound IC50 for human SH-SY5Y cells harboring ALK F1174L mutant assessed as inhibition of cell proliferation measured after 72 hrs by CCK8 assay. The format is functional. For orientation: Formazan colour is commonly taken as a measure of viable cells.
The subject of assay [15] is HepG2. Description: Potency index, ratio of crizotinib IC50 to test compound IC50 for human HepG2 cells assessed as inhibition of cell proliferation measured after 72 hrs by CCK8 assay. The format is functional.
Assay [16] concerns the target ALK tyrosine kinase receptor (Homo sapiens, UniProt Q9UM73, L1196M).
Assay [17] deals with A549. Description: Potency index, ratio of crizotinib IC50 to test compound IC50 for human A549 cells assessed as inhibition of cell proliferation measured after 72 hrs by CCK8 assay. The format is functional.
Assay [18] has as its target T1, ALK tyrosine kinase receptor (Homo sapiens, UniProt Q9UM73). The assay is described as follows: Inhibition of ALK (unknown origin) at 10 nM preincubated for 10 mins followed by addition of substrate and ATP for 25 mins by caliper EZ reader method. As to conditions: time 35.0 min.
Target sequence in this assay (Q9UM73 19-1620 limits assumed): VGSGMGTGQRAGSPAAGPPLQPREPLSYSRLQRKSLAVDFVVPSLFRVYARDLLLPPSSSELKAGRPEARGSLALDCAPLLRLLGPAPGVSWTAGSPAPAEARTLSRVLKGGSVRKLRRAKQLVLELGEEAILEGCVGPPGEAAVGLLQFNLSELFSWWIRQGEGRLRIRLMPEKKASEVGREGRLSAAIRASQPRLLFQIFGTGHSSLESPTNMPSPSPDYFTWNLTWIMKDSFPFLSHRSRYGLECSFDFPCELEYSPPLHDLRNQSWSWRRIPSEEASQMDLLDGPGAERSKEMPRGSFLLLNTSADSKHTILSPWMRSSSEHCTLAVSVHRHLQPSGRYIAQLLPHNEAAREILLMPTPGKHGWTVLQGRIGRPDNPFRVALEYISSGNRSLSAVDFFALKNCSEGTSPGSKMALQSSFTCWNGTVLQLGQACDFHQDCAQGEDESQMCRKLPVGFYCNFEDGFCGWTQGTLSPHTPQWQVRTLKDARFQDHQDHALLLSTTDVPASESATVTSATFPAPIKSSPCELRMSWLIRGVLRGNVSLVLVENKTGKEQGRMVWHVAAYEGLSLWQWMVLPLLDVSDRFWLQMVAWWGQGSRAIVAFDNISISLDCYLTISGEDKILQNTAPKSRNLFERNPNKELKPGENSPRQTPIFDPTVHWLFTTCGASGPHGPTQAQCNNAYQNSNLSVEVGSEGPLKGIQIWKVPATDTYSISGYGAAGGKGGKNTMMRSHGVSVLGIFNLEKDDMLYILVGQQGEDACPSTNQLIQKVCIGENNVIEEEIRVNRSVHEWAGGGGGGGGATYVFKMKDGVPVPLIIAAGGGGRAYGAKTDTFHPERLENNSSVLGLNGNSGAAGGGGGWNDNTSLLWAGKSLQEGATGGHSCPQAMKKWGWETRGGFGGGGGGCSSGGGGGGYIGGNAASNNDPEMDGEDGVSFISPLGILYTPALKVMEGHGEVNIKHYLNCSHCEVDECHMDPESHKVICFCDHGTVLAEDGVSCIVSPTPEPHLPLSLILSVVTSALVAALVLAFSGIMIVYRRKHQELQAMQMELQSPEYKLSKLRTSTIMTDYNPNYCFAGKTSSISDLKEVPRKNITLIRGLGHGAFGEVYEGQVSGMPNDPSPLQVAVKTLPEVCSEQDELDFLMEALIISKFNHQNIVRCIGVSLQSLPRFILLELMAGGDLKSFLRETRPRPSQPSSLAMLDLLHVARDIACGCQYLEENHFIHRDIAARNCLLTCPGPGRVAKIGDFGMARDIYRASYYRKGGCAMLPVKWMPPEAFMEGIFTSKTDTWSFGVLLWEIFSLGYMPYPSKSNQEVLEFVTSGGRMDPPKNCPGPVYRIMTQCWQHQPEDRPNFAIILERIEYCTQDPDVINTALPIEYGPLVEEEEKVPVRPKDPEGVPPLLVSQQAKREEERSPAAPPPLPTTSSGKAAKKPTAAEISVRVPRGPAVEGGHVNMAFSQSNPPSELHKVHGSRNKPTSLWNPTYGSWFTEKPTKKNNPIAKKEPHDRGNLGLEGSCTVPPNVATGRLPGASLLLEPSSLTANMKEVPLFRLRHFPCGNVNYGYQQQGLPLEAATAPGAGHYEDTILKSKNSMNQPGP
In assay [19] the test system is NCI-H2228. The assay is described as follows: Potency index, ratio of crizotinib IC50 to test compound IC50 for human NCI-H2228 cells harboring EML4/ALK […] assessed as inhibition of cell proliferation measured after 72 hrs by CCK8 assay. The format is functional.
A short description of assay [20]: Potency index, ratio of crizotinib IC50 to test compound IC50 for human SKNBE2 cells harboring wild type ALK assessed as inhibition of cell proliferation measured after 72 hrs by CCK8 assay. The format is functional.
Assay [21] deals with ALK tyrosine kinase receptor (Homo sapiens, UniProt Q9UM73, G1202R).
The target of assay [22] is T2, Histone deacetylase 1 (Homo sapiens, UniProt Q13547). The following applies: Sf9, dose 100.0 nM, time 15.0 min.
Assay [23] relates to MDA-MB-231. The assay is described as follows: Potency index, ratio of ceritinib IC50 to test compound IC50 for human MDA-MB-231 cells assessed as inhibition of cell proliferation measured after 72 hrs by CCK8 assay. The format is functional.
Assay [24] has as its target Histone deacetylase 2 (Homo sapiens, UniProt Q92769).
Description: Inhibition of HDAC2 (unknown origin)
Assay [25] can be described thus: Potency index, ratio of ceritinib IC50 to test compound IC50 for human SKNBE2 cells harboring wild type ALK assessed as inhibition of cell proliferation measured after 72 hrs by CCK8 assay. The format is functional.
Assay [26] has as its target T2, Histone deacetylase 1. The following applies: Sf9, dose 10.0 nM, time 15.0 min.
Assay [27] relates to SH-SY5Y. The assay is described as follows: Potency index, ratio of ceritinib IC50 to test compound IC50 for human SH-SY5Y cells harboring ALK F1174L mutant assessed as inhibition of cell proliferation measured after 72 hrs by CCK8 assay. The format is functional.
For assay [28], the target named is T1, ALK tyrosine kinase receptor.
Target sequence in this assay (Q9UM73 whole entry): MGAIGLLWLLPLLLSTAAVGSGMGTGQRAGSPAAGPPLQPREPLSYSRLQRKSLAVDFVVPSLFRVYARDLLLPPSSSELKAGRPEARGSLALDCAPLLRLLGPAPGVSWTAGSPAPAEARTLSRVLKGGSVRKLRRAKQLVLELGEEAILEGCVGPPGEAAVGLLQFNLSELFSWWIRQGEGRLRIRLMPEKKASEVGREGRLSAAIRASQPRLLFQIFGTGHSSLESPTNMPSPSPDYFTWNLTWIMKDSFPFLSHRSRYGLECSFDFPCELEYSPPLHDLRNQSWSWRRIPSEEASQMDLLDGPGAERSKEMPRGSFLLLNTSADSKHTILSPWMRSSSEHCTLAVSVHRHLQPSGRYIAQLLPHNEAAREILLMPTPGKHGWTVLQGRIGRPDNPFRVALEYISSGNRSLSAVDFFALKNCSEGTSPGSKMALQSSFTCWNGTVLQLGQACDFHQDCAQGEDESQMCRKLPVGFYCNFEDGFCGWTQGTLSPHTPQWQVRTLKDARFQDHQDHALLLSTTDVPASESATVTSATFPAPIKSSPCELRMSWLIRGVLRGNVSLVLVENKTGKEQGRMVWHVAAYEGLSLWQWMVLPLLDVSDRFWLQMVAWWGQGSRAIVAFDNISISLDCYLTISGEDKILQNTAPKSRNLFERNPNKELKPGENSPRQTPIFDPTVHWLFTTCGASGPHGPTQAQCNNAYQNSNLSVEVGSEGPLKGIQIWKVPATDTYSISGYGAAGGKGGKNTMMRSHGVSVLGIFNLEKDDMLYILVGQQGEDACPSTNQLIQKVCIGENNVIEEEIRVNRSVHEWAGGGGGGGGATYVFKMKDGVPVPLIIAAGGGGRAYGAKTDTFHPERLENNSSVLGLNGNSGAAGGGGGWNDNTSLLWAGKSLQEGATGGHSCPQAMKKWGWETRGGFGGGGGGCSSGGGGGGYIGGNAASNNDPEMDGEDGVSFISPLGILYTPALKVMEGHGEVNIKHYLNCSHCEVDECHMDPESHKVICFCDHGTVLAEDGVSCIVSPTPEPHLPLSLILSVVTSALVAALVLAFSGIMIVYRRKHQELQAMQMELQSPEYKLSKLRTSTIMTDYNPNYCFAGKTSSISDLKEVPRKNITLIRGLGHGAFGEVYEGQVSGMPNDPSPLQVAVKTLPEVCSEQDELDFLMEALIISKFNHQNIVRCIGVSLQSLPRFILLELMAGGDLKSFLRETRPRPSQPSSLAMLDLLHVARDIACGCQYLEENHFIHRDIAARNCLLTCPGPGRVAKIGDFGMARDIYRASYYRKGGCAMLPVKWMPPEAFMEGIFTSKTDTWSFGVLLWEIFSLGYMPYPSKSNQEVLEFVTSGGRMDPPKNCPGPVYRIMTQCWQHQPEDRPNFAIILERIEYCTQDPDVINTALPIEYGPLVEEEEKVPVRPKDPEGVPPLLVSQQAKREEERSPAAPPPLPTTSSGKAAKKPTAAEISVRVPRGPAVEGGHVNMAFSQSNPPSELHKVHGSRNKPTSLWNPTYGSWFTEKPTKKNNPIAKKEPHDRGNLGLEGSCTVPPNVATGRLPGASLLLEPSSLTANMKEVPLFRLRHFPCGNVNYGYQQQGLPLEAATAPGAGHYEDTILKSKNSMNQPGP
Description: Inhibition of ALK (unknown origin) preincubated for 10 mins followed by addition of substrate and ATP for 25 mins by caliper EZ reader method
Assay [29] concerns A549. The assay is described as follows: cells. The class given is functional, cell-based. The following applies: Homo sapiens, A549, 72 h.
Description: Antiproliferative activity against human A549 cells assessed as inhibition of cell proliferation measured after 72 hrs by CCK8 assay
Assay [30] concerns NCI-H2228. The assay is described as follows: Potency index, ratio of ceritinib IC50 to test compound IC50 for human NCI-H2228 cells harboring EML4/ALK […] assessed as inhibition of cell proliferation measured after 72 hrs by CCK8 assay. The format is functional.
The target in assay [31] is T1, ALK tyrosine kinase receptor. Description: Inhibition of ALK (unknown origin) at 100 nM preincubated for 10 mins followed by addition of substrate and ATP for 25 mins by caliper EZ reader method. The following applies: time 35.0 min.
Target sequence in this assay (Q9UM73 19-1620 limits assumed): as the sequence (Q9UM73 19-1620 limits assumed) above
In assay [32] the test system is HepG2. Description: Potency index, ratio of ceritinib IC50 to test compound IC50 for human HepG2 cells assessed as inhibition of cell proliferation measured after 72 hrs by CCK8 assay. The format is functional.
In assay [33] the test system is MDA-MB-231. The assay is described as follows: Potency index, ratio of crizotinib IC50 to test compound IC50 for human MDA-MB-231 cells assessed as inhibition of cell proliferation measured after 72 hrs by CCK8 assay. The class given is functional.
Assay [34] deals with T2, Histone deacetylase 1. The assay is described as follows: biochemical.
Description: Inhibition of recombinant human C-terminal His/FLAG-tagged HDAC1 (1 to 482 residues) expressed in Sf9 insect cells using Ac-peptide-AMC as substrate preincubated for 15 mins followed by addition of substrate and trypsin measured by flourescence assay
Assay [35] deals with A549. The assay is described as follows: Potency index, ratio of ceritinib IC50 to test compound IC50 for human A549 cells assessed as inhibition of cell proliferation measured after 72 hrs by CCK8 assay. The class given is functional.
Assay [36] deals with T3, Protein deacetylase HDAC6 (Homo sapiens, UniProt Q9UBN7).
T3 sequence (Q9UBN7 whole entry): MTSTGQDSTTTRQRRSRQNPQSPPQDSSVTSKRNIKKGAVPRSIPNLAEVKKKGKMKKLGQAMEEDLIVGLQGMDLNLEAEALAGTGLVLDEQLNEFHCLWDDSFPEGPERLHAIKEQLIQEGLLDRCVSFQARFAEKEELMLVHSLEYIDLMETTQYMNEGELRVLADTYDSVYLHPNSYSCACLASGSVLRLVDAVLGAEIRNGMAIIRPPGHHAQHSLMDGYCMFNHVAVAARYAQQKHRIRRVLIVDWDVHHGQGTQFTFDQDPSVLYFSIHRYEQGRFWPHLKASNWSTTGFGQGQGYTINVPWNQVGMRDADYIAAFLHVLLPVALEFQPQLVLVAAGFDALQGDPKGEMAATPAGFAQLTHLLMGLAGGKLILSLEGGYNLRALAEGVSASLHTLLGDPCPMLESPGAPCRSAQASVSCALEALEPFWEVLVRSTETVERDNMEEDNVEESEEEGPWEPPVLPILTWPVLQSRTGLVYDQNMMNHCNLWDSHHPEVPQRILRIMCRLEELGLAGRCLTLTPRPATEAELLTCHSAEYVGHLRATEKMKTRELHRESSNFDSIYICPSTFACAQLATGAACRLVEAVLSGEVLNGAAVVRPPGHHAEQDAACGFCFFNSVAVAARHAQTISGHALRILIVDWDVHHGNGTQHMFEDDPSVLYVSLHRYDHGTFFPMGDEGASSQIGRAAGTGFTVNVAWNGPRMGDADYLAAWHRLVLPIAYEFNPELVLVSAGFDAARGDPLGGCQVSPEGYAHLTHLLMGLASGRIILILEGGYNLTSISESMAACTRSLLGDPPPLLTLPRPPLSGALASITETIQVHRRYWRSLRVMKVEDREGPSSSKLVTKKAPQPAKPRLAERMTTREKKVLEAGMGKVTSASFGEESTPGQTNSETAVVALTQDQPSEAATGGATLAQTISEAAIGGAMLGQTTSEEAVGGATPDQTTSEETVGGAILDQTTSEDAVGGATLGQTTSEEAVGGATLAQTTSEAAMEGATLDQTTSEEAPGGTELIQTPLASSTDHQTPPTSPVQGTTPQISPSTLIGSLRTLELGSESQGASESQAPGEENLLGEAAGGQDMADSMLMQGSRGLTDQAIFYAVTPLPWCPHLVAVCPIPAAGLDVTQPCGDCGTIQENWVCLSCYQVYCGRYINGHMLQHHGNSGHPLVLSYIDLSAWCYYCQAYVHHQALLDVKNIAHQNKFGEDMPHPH
Description: Inhibition of HDAC6 (unknown origin)

Molecules are shown by their SMILES.

T2 sequence (Q13547 whole entry): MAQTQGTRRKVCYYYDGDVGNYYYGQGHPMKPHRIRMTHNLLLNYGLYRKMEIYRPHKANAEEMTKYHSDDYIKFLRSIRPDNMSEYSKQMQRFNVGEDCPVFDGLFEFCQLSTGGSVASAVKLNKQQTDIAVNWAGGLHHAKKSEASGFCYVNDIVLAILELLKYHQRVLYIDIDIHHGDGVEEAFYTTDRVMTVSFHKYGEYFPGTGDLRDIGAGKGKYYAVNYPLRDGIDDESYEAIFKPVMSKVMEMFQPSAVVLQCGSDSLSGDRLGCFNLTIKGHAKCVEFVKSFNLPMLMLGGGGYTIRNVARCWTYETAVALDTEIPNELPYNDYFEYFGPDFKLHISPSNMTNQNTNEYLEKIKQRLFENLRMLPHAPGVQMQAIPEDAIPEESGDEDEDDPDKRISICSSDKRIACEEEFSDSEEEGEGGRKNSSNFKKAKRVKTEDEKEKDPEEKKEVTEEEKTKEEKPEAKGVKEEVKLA
Chain of Histone deacetylase 2 (Q92769 whole entry): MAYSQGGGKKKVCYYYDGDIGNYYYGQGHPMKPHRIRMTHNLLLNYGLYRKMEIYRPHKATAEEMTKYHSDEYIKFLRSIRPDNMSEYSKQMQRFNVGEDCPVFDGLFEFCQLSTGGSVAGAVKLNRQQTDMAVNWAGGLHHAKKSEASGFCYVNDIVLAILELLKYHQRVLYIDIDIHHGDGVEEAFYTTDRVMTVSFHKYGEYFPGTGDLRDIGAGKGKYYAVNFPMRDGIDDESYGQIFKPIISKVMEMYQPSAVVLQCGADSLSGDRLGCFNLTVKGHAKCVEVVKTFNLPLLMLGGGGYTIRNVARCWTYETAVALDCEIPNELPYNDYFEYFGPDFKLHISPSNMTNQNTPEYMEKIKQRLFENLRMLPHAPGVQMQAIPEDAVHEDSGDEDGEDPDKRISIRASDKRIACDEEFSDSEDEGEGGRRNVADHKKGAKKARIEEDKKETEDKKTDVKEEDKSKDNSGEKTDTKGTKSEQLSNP
Chain of ALK tyrosine kinase receptor (Homo sapiens, UniProt Q9UM73, L1196M) (Q9UM73 19-1620 L1196M limits assumed): as the sequence (Q9UM73 19-1620 limits assumed) above, with L1178M counted along it
Chain of ALK tyrosine kinase receptor (Homo sapiens, UniProt Q9UM73, G1202R) (Q9UM73 19-1620 G1202R limits assumed): as the sequence (Q9UM73 19-1620 limits assumed) above, with G1184R counted along it

Take `Cc1cc(Nc2ncc(Cl)c(Nc3ccccc3S(=O)(=O)C(C)C)n2)c(OC(C)C)cc1C1CCNCC1` [CERITINIB]: the viability at 1 µM in [1] amounted to 81.9%; in assay [13] it was 90.2%. In addition, the Activity in [2] stood at 11.77%; in assay [5], 2.07%; in assay [7], 20.4%; in [8], 1.17%; in [11] it was 1.55%; in [12], 7.07%. Besides, the IC50 worked out at 370 nM in [3]; 1820 nM in [4]; 1980 nM in assay [6]; 2660 nM in [9]; 4080 nM in assay [10].
`CC(C)S(=O)(=O)c1ccccc1Nc1nc(Nc2ccc(C(=O)NCCCCCCC(=O)NO)cc2)ncc1Cl`: the “Ratio IC50” value in [14], in assay [15], in assay [17], in [19], in assay [20] and in [23] was 3 each time. The “Ratio IC50” value in assay [25], in [27], in assay [30], in [32], in assay [33] and in assay [35] was 3 each time. Further, the IC50 in [16] was found to be 2.4 nM; in [3] it was 340 nM; in assay [4] it was 390 nM; in assay [6] it was 180 nM; in [21], 1 nM; in assay [9], 220 nM. Besides, the IC50 worked out at 910 nM in assay [10]; 15 nM in [24]; 4.3 nM in [28]; 3420 nM in assay [29]; 12 nM in [34]; 6.7 nM in assay [36]. Besides, the inhibition in assay [18] stood at 84.5%; in assay [22], 100%; in assay [26] it was 49%; in assay [31], 103%.
As for `CC(C)S(=O)(=O)c1ccccc1Nc1nc(Nc2ccc(C(=O)NCCCC(=O)NO)cc2)ncc1Cl`, the inhibition in [18] is 91.2%; in assay [22], 4%; in assay [26], -2%; in assay [31], 97.9%.
